According to ChEMBL document CHEMBL1153142, “Scaffold hopping from pyridones to imidazo[1,2-a]pyridines. New positive allosteric modulators of metabotropic glutamate 2 receptor” (Bioorg Med Chem Lett, 2010):
pEC50: −log10 of the molar value.

Tests used:
[1] = target: T1, Metabotropic glutamate receptor 2 (Homo sapiens, UniProt Q14416); assay: Allosteric modulation of human mGluR2 expressed in CHO cells by [35S]GTPgammaS binding assay relative to glutamate; format: functional, cell-based
Target sequence in this assay (Q14416 19-872 limits assumed): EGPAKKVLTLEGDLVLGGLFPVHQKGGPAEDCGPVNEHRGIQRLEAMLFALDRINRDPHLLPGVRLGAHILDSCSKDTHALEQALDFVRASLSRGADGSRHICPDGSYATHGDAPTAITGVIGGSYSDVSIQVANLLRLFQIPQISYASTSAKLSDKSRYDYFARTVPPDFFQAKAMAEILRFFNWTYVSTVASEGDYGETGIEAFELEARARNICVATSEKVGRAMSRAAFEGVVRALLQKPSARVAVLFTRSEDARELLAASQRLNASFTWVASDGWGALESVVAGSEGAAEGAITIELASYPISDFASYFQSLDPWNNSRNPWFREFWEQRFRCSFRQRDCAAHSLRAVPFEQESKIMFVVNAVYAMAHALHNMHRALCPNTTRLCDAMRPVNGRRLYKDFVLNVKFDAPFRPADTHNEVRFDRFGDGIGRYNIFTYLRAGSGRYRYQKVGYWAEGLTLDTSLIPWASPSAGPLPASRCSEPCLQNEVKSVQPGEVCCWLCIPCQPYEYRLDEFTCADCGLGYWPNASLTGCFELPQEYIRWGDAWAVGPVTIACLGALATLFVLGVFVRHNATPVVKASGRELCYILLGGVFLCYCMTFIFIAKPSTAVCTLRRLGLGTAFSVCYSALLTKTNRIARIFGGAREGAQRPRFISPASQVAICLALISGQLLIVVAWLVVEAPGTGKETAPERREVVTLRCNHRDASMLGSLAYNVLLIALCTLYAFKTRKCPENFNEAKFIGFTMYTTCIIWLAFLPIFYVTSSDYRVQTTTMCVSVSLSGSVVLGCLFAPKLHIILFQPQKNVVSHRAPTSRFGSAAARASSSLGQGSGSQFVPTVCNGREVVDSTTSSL

[2] = target: T1, Metabotropic glutamate receptor 2; assay: Allosteric modulation of human mGluR2 expressed in CHO cells by [35S]GTPgammaS binding assay; format: functional, cell-based
Target sequence in this assay (Q14416 whole entry): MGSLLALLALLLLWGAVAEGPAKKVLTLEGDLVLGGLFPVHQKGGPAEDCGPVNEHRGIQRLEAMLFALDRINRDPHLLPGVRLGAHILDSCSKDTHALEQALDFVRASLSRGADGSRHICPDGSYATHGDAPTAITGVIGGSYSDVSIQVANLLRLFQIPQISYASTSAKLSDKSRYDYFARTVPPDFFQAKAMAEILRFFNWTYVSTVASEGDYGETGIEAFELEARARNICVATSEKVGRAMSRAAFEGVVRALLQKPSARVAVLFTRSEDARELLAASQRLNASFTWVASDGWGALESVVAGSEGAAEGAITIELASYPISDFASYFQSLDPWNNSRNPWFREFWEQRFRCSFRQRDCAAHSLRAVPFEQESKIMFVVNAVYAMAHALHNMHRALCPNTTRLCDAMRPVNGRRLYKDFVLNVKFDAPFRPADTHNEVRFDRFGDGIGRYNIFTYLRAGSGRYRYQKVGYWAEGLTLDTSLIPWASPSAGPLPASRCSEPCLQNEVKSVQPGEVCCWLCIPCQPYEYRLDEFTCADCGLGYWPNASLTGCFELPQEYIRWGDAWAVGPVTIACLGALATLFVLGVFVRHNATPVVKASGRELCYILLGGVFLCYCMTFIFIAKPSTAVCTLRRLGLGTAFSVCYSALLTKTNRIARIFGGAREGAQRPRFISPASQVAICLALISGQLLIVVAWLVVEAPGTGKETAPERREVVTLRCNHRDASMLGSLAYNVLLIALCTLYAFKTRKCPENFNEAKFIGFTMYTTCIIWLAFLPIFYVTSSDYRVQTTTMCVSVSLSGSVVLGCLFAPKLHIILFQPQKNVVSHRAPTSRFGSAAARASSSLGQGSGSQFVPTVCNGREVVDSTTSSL

SMILES	Emax [1] [%]	pEC50 [2]
N#Cc1c(-c2ccc(NC3CC3)c(Cl)c2)ccn2c(CC(F)(F)F)cnc12	187	
CCCc1cnc2c(C#N)c(N3CCN(c4ncccn4)CC3)ccn12	248	< 5.50
CCCc1cnc2c(C#N)c(N3CCN(c4nc(C)cc(C)n4)CC3)ccn12	179	
N#Cc1c(-c2ccc(OCc3ccccc3)cc2)ccn2c(CC(F)(F)F)cnc12	222	
Cc1cc(C)nc(N2CCN(c3ccn4c(CC(F)(F)F)cnc4c3C#N)CC2)n1	128	
CCc1cnc2c(C#N)c(N3CCN(c4nc(C)cc(C)n4)CC3)ccn12	142	
CC(C)(C)c1ccc(-c2ccn3c(CC(F)(F)F)cnc3c2C#N)cc1	272	
CCCc1cnc2c(C#N)c(N3CCN(c4ccccc4)CC3)ccn12	241	
CCc1cnc2c(C#N)c(N3CCN(c4ncccn4)CC3)ccn12	214	< 5.50

Next, values leading:

Emax [1] [%]	pEC50 [2]	SMILES
200		N#Cc1c(-c2ccc(Oc3ccccc3)cc2)ccn2c(CC(F)(F)F)cnc12
213		Cc1c(OCc2cccc(-c3ccc(C(=O)O)cc3)c2)cc2c(c1C)C(=O)C(C1CCCC1)C2 (centres undefined)
231		N#Cc1c(N2CCN(c3ncccn3)CC2)ccn2c(CC(F)(F)F)cnc12
123		N#Cc1c(-c2ccc(N3CCCCC3)cc2)ccn2c(CC(F)(F)F)cnc12
73	< 5.50	N#Cc1c(N2CCN(c3ccccc3)CC2)ccn2c(-c3ccccc3)cnc12
229		N#Cc1c(N2CCN(c3ncccn3)CC2)ccn2c(CCC3CC3)cnc12
235		CCCCn1ccc(N2CCN(c3nc(C)cc(C)n3)CC2)c(C#N)c1=O
